Measurements reported in US3940441A (priority 1974, dated 1976).
Converted amounts (≈) assume the structure as drawn. Where two headings read alike, the source gives them in different places.

Legend:
Pseudomonas aeruginosa = experiment: microbe, parasite or virus in culture; format: cell-based; details: for MBC / MIC: Pseudomonas aeruginosa; for MBC: read-out: Minimum Effective Concentration, Bactericidal
Streptococcus sp. = experiment: microbe, parasite or virus in culture; format: cell-based; details: for MBC / MIC: Streptococcus; for MBC: read-out: Minimum Effective Concentration, Bactericidal; for MIC: read-out: Minimum Effective Concentration, Bacteriostatic
Eberthella typhi = experiment: microbe, parasite or virus in culture; format: cell-based; details: for MBC: read-out: Minimum Effective Concentration, Bactericidal; for MIC: read-out: Minimum Effective Concentration, Bacteriostatic
Clostridium welchii = experiment: microbe, parasite or virus in culture; format: cell-based
Staphylococcus aureus = experiment: microbe, parasite or virus in culture; format: cell-based; details: for MBC / MIC: Staphylococcus aureus; for MBC: read-out: Minimum Effective Concentration, Bactericidal
Endamoeba criceti = experiment: chemotherapeutic evaluation in vivo in hamsters infected with Endamoeba criceti (amebacidal activity); parameters: species or system hamster; details: oral
Escherichia coli = experiment: microbe, parasite or virus in culture; format: cell-based; details: read-out: Minimum Inhibitory Concentration
Proteus vulgaris = experiment: microbe, parasite or virus in culture; format: cell-based; details: read-out: Minimum Inhibitory Concentration
[1] = read-out: Minimum Effective Concentration, Bacteriostatic
[2] = Clostridium, read-out: Minimum Effective Concentration, Bactericidal
[3] = Clostridium, read-out: Minimum Effective Concentration, Bacteriostatic
[4] = read-out: Minimum Inhibitory Concentration

Compound: 2,2'-Dimethylbis{2-[4-(4'-nitrophenoxy)benzylamino]-ethyl}amine and 1,2'-Dimethylbis{2-[4-(4'-nitrophenoxy)benzylamino]ethyl}amine (Mixture of Isomers) [Example 9A]
- Minimum Effective Concentration, Bactericidal (Pseudomonas aeruginosa): > 1.0 mg./cc.
- Minimum Effective Concentration, Bacteriostatic (Pseudomonas aeruginosa): 0.5 mg./cc.
- Minimum Effective Concentration, Bactericidal (Streptococcus sp.): 0.01 mg./cc.
- Minimum Effective Concentration, Bacteriostatic (Streptococcus sp.): 0.0075 mg./cc.
- Minimum Effective Concentration, Bactericidal (Eberthella typhi): 0.25 mg./cc.
- Minimum Effective Concentration, Bacteriostatic (Eberthella typhi): 0.1 mg./cc.
- Minimum Effective Concentration, Bactericidal (Clostridium welchii): 0.005 mg./cc.
- Minimum Effective Concentration, Bacteriostatic (Clostridium welchii): 0.001 mg./cc.
- Minimum Effective Concentration, Bactericidal (Staphylococcus aureus): 0.025 mg./cc.
- Minimum Effective Concentration, Bacteriostatic (Staphylococcus aureus): 0.005 mg./cc.

Compound: O=[N+]([O-])c1ccc(Oc2ccc(C=NCCCCCCN=Cc3ccc(Oc4ccc([N+](=O)[O-])cc4)cc3)cc2)cc1 [Example 1A, N,N'-bis[4-(4'-nitrophenoxy)benzal]-1,6-hexanediamine]
- animals cleared of amebic infection (Endamoeba criceti; 25 mg./kg./day): 4 out of 10
- animals cleared of amebic infection (Endamoeba criceti; 50 mg./kg./day): 6 out of 10
- animals cleared of amebic infection (Endamoeba criceti; 100 mg./kg./day): 3 out of 5

Compound: O=[N+]([O-])c1ccc(Oc2ccc(C=NCCCCCCCCN=Cc3ccc(Oc4ccc([N+](=O)[O-])cc4)cc3)cc2)cc1 [Example 2, N,N'-bis[4-(4'-nitrophenoxy)benzal]-1,8-octanediamine]
- animals cleared of amebic infection (Endamoeba criceti; 12.5 mg./kg./day): 1 out of 5
- animals cleared of amebic infection (Endamoeba criceti; 25 mg./kg./day): 2 out of 5
- animals cleared of amebic infection (Endamoeba criceti; 50 mg./kg./day): 2 out of 5

Compound: O=[N+]([O-])c1ccc(Oc2ccc(C=NCCN=Cc3ccc(Oc4ccc([N+](=O)[O-])cc4)cc3)cc2)cc1 [Example 3, N,N'-bis[4-(4'-nitrophenoxy)benzal]-1,2-ethanediamine]
- animals cleared of amebic infection (Endamoeba criceti; 100 mg./kg./day): 2 out of 5

Compound: O=[N+]([O-])c1ccc(Oc2ccc(CNCCCCCCCCNCc3ccc(Oc4ccc([N+](=O)[O-])cc4)cc3)cc2)cc1 [Example 6A, N,N'-bis[4-(4'-nitrophenoxy)benzyl]-1,8-octanediamine]
- MBC (Pseudomonas aeruginosa): 1000 µg/mL (≈ 1670 µM)
- MIC (Pseudomonas aeruginosa; [1]): 750 µg/mL (≈ 1250 µM)
- MBC (Eberthella typhi): 25 µg/mL (≈ 41.8 µM)
- MIC (Eberthella typhi): 7.5 µg/mL (≈ 12.5 µM)
- MBC (Clostridium welchii; [2]): 75 µg/mL (≈ 125 µM)
- MIC (Clostridium welchii; [3]): 50 µg/mL (≈ 83.5 µM)
- MBC (Staphylococcus aureus): 5 µg/mL (≈ 8.35 µM)
- MIC (Staphylococcus aureus; [1]): 0.5 µg/mL (≈ 0.835 µM)

Compound: O=[N+]([O-])c1ccc(Oc2ccc(CNCCCCCCNCc3ccc(Oc4ccc([N+](=O)[O-])cc4)cc3)cc2)cc1 [Example 7, N,N'-bis[4-(4'-nitrophenoxy)benzyl]-1,6-hexanediamine]
- MBC (Pseudomonas aeruginosa): 500 µg/mL (≈ 876 µM)
- MIC (Pseudomonas aeruginosa; [1]): 250 µg/mL (≈ 438 µM)
- MBC (Eberthella typhi): 50 µg/mL (≈ 87.6 µM)
- MIC (Eberthella typhi): 7.5 µg/mL (≈ 13.1 µM)
- MBC (Clostridium welchii; [2]): 25 µg/mL (≈ 43.8 µM)
- MIC (Clostridium welchii; [3]): 25 µg/mL (≈ 43.8 µM)
- MBC (Staphylococcus aureus): 7.5 µg/mL (≈ 13.1 µM)
- MIC (Staphylococcus aureus; [1]): 1 µg/mL (≈ 1.75 µM)

Compound: O=[N+]([O-])c1ccc(Oc2ccc(CNCCNCc3ccc(Oc4ccc([N+](=O)[O-])cc4)cc3)cc2)cc1 [Example 8, N,N'-bis[4-(4'-nitrophenoxy)benzyl]-1,2-ethanediamine]
- MBC (Pseudomonas aeruginosa): > 100 µg/mL
- MIC (Pseudomonas aeruginosa; [1]): 75 µg/mL (≈ 146 µM)
- MBC (Eberthella typhi): > 100 µg/mL
- MIC (Eberthella typhi): 75 µg/mL (≈ 146 µM)
- MBC (Clostridium welchii; [2]): 1 µg/mL (≈ 1.94 µM)
- MIC (Clostridium welchii; [3]): 0.5 µg/mL (≈ 0.972 µM)
- MBC (Staphylococcus aureus): 50 µg/mL (≈ 97.2 µM)
- MIC (Staphylococcus aureus; [1]): 10 µg/mL (≈ 19.4 µM)

Compound: O=[N+]([O-])c1ccc(Oc2ccc(CNCCCNCCCNCc3ccc(Oc4ccc([N+](=O)[O-])cc4)cc3)cc2)cc1 [Example 9B, Bis{3-[4-(4'-nitrophenoxy)benzylamino]propyl}amine]
- MIC (Escherichia coli): 0.2 µg/mL (≈ 0.341 µM)
- MIC (Pseudomonas aeruginosa; [4]): 3.1 µg/mL (≈ 5.29 µM)
- MIC (Proteus vulgaris): 125 µg/mL (≈ 213 µM)
- MIC (Staphylococcus aureus; [4]): 0.05 µg/mL (≈ 0.0854 µM)

Compound: O=[N+]([O-])c1ccc(Oc2ccc(CNC[C@H]3CC[C@H](CNCc4ccc(Oc5ccc([N+](=O)[O-])cc5)cc4)CC3)cc2)cc1 [Example 10A, Trans-1,4-bis[4-(4'-nitrophenoxy)benzylaminomethyl]cyclohexane]
- MBC (Streptococcus sp.): 25 µg/mL (≈ 41.9 µM)
- MIC (Streptococcus sp.): 25 µg/mL (≈ 41.9 µM)
- MBC (Eberthella typhi): 75 µg/mL (≈ 126 µM)
- MIC (Eberthella typhi): 50 µg/mL (≈ 83.8 µM)
- MBC (Clostridium welchii; [2]): 100 µg/mL (≈ 168 µM)
- MIC (Clostridium welchii; [3]): 100 µg/mL (≈ 168 µM)
- MBC (Staphylococcus aureus): 50 µg/mL (≈ 83.8 µM)
- MIC (Staphylococcus aureus; [1]): 10 µg/mL (≈ 16.8 µM)

Compound: CN(CCCCCCN(C)Cc1ccc(Oc2ccc([N+](=O)[O-])cc2)cc1)Cc1ccc(Oc2ccc([N+](=O)[O-])cc2)cc1 [Example 11A, N,N'-Dimethyl-N,N'-bis[4-(4'-nitrophenoxy)-benzyl]-1,6-hexanediamine]
- MBC (Streptococcus sp.): 5 µg/mL (≈ 8.35 µM)
- MIC (Streptococcus sp.): 5 µg/mL (≈ 8.35 µM)
- MBC (Eberthella typhi): 750 µg/mL (≈ 1250 µM)
- MIC (Eberthella typhi): 500 µg/mL (≈ 835 µM)
- MBC (Clostridium welchii; [2]): 500 µg/mL (≈ 835 µM)
- MIC (Clostridium welchii; [3]): 250 µg/mL (≈ 418 µM)
- MBC (Staphylococcus aureus): 250 µg/mL (≈ 418 µM)
- MIC (Staphylococcus aureus; [1]): 5 µg/mL (≈ 8.35 µM)

Compound: O=C(Nc1ccccc1)N(CCCCCCN(Cc1ccc(Oc2ccc([N+](=O)[O-])cc2)cc1)C(=O)Nc1ccccc1)Cc1ccc(Oc2ccc([N+](=O)[O-])cc2)cc1 [Example 12A, N,N'-bis[4-(4'-nitrophenoxy)benzyl]-N,N'-bis(phenylcarbamyl)-1,6-hexanediamine]
- MBC (Pseudomonas aeruginosa): > 100 µg/mL
- MIC (Pseudomonas aeruginosa; [1]): 75 µg/mL (≈ 92.7 µM)
- MBC (Eberthella typhi): > 100 µg/mL
- MIC (Eberthella typhi): 75 µg/mL (≈ 92.7 µM)
- MBC (Clostridium welchii; [2]): 100 µg/mL (≈ 124 µM)
- MIC (Clostridium welchii; [3]): 75 µg/mL (≈ 92.7 µM)
- MBC (Staphylococcus aureus): 75 µg/mL (≈ 92.7 µM)
- MIC (Staphylococcus aureus; [1]): 75 µg/mL (≈ 92.7 µM)

Compound: O=C(C(Cl)Cl)N(CCN(Cc1ccc(Oc2ccc([N+](=O)[O-])cc2)cc1)C(=O)C(Cl)Cl)Cc1ccc(Oc2ccc([N+](=O)[O-])cc2)cc1 [Example 13A, N,N'-bis(dichloroacetyl)-N,N'-bis[4-(4'-nitrophenoxy)benzyl]-1,2-ethanediamine]
- MBC (Pseudomonas aeruginosa): 750 µg/mL (≈ 1020 µM)
- MIC (Pseudomonas aeruginosa; [1]): 750 µg/mL (≈ 1020 µM)
- MBC (Eberthella typhi): 750 µg/mL (≈ 1020 µM)
- MIC (Eberthella typhi): 750 µg/mL (≈ 1020 µM)
- MBC (Clostridium welchii; [2]): > 1000 µg/mL
- MIC (Clostridium welchii; [3]): 750 µg/mL (≈ 1020 µM)
- MBC (Staphylococcus aureus): > 1000 µg/mL
- MIC (Staphylococcus aureus; [1]): 750 µg/mL (≈ 1020 µM)

Compound: Nc1ccc(Oc2ccc(CNCCCCCCCCNCc3ccc(Oc4ccc(N)cc4)cc3)cc2)cc1 [Example 14A, N,N'-bis[4-(4'-aminophenoxy)benzyl]-1,8-octanediamine]
- MBC (Pseudomonas aeruginosa): 1000 µg/mL (≈ 1860 µM)
- MIC (Pseudomonas aeruginosa; [1]): 750 µg/mL (≈ 1390 µM)
- MBC (Streptococcus sp.): 50 µg/mL (≈ 92.8 µM)
- MIC (Streptococcus sp.): 25 µg/mL (≈ 46.4 µM)
- MBC (Eberthella typhi): 75 µg/mL (≈ 139 µM)
- MIC (Eberthella typhi): 50 µg/mL (≈ 92.8 µM)
- MBC (Clostridium welchii; Clostridium; read-out: Minimum Effective Concentration, Bactericidal): 100 µg/mL (≈ 186 µM)
- MIC (Clostridium welchii; Clostridium; read-out: Minimum Effective Concentration, Bacteriostatic): 100 µg/mL (≈ 186 µM)
- MBC (Staphylococcus aureus): 25 µg/mL (≈ 46.4 µM)
- MIC (Staphylococcus aureus; [1]): 7.5 µg/mL (≈ 13.9 µM)

Compound: Cc1c(C)c(CCNCc2ccc(Oc3ccc([N+](=O)[O-])cc3)cc2)c(C)c(C)c1CCNCc1ccc(Oc2ccc([N+](=O)[O-])cc2)cc1 [Example 16A, Bis{2-[4-(4'-nitrophenoxy)benzylamino]ethyl}-2,3,5,6-tetramethylbenzene]
- MBC (Streptococcus sp.): 25 µg/mL (≈ 37 µM)
- MIC (Streptococcus sp.): 2.5 µg/mL (≈ 3.7 µM)
- MBC (Eberthella typhi): 750 µg/mL (≈ 1110 µM)
- MIC (Eberthella typhi): 100 µg/mL (≈ 148 µM)
- MBC (Clostridium welchii; [2]): 250 µg/mL (≈ 370 µM)
- MIC (Clostridium welchii; [3]): 100 µg/mL (≈ 148 µM)
- MBC (Staphylococcus aureus): 75 µg/mL (≈ 111 µM)
- MIC (Staphylococcus aureus; [1]): 7.5 µg/mL (≈ 11.1 µM)
